Columns and labels:
Format in all cases: biochemical
Src (p60c-src) = target: T1, Src (p60c-src) (Homo sapiens, UniProt P12931); assay: Src-Inhibitor-Assay (time-resolved fluorescence); details: ATP 5 μM; enzyme pre-incubated 15 min at 15° C. with inhibitor
T1 construct: purchased UBI, Upstate Biotech, Inc
Method: Src-Inhibitor-Assay Parameters:
• ATP 5 μM • Peptide (Ro+Ja133-Ro): 10 μM • Ja133-Ro 196 nM • Ro 9.8 μM • PT66 230 ng/ml • Assay buffer: 4 mM MgCl2 • 2 mM TCEP • 50 mM HEPES • 0.1% Tween 20 • pH 7.3 • Enzyme: 2.5 U/ml • Inhibitor: max. 25 μM • min. 0.42 nM Material: • Eu-labelled phosphotyrosine antibody: —for Lck Cisbio Mab PT66-K, • for Src EG&G Wallac PT66 Eu-W1024 (all commercially available). • Peptides: Ro: NH2-A-E-E-E-I-Y-G-E-F-E-A-K-K-K-K-CONH2, and • Ja133-Ro: Ja133-G-Aminocaprylic acid-A-E-E-E-I-Y-G-E-F-E-A-K-K-K-K-CONH2, wherein Ja133 is LightCycler-Red 640-N-hydroxy succinimide ester; • whereby both peptides were synthesized by an optimized solid phase peptide synthesis protocol (Merrifield, Fed. Proc. Fed. Amer. Soc. Exp. Biol. 21 (1962) 412) on a Zinsser SMP350 peptide synthesizer. Shortly, the peptide was assembled on 160 mg (22.8 μmol scale) of a Rink-Linker modified polystyrene solid phase by repeatedly conjugating an twenty fold excess of amino acids each protected by temporary piperidine labile Fmoc- and permanent acid labile tert-Bu-, BOC- and O-tert-Bu-groups depending on the side chain function. The substrate sequence AEEEIYGEFEAKKKK was N-terminal additionally mounted with the spacer amino acids Aminocaprylic acid and Glycin. After cleavage of the N-terminal temporary protecting group the still attached and protected peptide was labeled with a 1.5 fold amount of LightCycler-Red 640-N-hydroxy succinimide ester (purchased from Roche Diagnostics GmbH) and triethylamine. After 3 hrs. the resin was washed with Dimethylformamide and Isopropanol until the eluates of the blue resin got colourless. […] The substrate was finally isolated by a preparative reverse phase HPLC purification. The purification yielded 12.2 mg RP-HPLC single peak pure blue material (lyophilisate). The identity was proven by MALDI mass spectroscopy [2720.0]. • Enzymes: Upstate Lck (p56^lck, active), Upstate Src (p60^c-src, partially purified) were purchased from UBI, Upstate Biotech, Inc. Time-resolved Fluorescence Assay: Reader: Perkin Elmer, Wallac Viktor 1420-040 multilabel counter; Liquid handling system: Beckman Coulter, Biomek 2000.
ATP, Tween™ 20, 4-(2-hydroxyethyl)-1-piperazineethanesulfonic acid (HEPES) were purchased from Roche Molecular Biochemicals, MgCl2 and MnCl2 were purchased from Merck Eurolab, Tris(2-carboxyethyl)phosphine hydrochloride (TCEP) was purchased from Pierce, 384 Well low volume fluorescence plates was purchased from Falcon.
At first the enzyme is pre-incubated for 15 min. at 15° C. in aqueous solution with corresponding amounts of inhibitors according to this invention. Then the phosphorylation reaction is started by adding a reaction mixture, containing ATP, Peptide and PT66, and subsequent shaking. The proceeding of this reaction is immediately monitored using time resolved fluorescence spectroscopy in a suitable well plate reader.
The IC50-values can be obtained from the reaction rates by using a non-linear curve fit (XLfit software (ID Business Solution Ltd., Guilford, Surrey, UK)).

[1] = target: T2, mouse Abl (27-end) fusion protein (Mus musculus, UniProt P00520); assay: IC50 determination for inhibitors of Abl kinase (IMAP fluorescence polarization); details: 22.8 uM ATP, 37° C., 60 minutes; read-out: IC50 Abl kinase inhibition
T2 construct: fusion protein corresponding to mouse Abl (27-end)
Method: IC50 Determination for Inhibitors of Abl Kinase
Abl assay was done using fusion protein corresponding to mouse Abl (27-end) fluorescein labeled peptide substrate (with a sequence of EAIYAAPFAKKK) and quantified by Molecular Devices' IMAP fluorescence polarization technology. Compounds were tested in serially diluted concentrations in 384 well plates. Kinase reaction was performed in KAB Buffer (10 mM HEPES, pH 7, 50 mM NaCl, 5 mM MgCl2, 1 mM DTT, 0.1 mM NaVO4, 0.02% BSA), in the presence of 22.8 uM ATP, incubated at 37° C. for 60 minutes. Reaction was stopped by IMAP bead mix (at 1:400 diluted). After incubation at room temperature for 3 hours, the reaction product was analyzed on LJL Acquest (excitation 485 nm and Emission 530 nm).
(§1) FP reading (in mP) was used to calculate reaction rate. The assay was semi-automated by Tomtec Quadra workstation.

[2] = target: human recombinant PDGFR beta (Homo sapiens, UniProt P09619); assay: IC50 determination for inhibitors of PDGFR kinase (IMAP fluorescence polarization); details: 48 uM ATP, room temperature, 60 minutes; read-out: IC50 PDGFR kinase inhibition
Method: IC50 Determination for Inhibitors of PDGFR Kinase Assay Principle
PDGFR assay was carried out with human recombinant PDGFR beta, fluorescein labeled peptide substrate (with a peptide sequence of ALTSNQEYLDLSMPL) and test compounds (in serial dilution) using 384-well plates. Kinase reaction was performed in MOPS buffer (20 mM MOPS pH 7.1, 5 mM Sodium Acetate, 6.25 mM MgCl2, 0.5 mM EDTA, 1 mM DTT, 0.04 mM NaVO4, 0.02% BSA), in the presence of 48 uM ATP, incubated at room temperature for 60 minutes. Reaction was stopped by IMAP Bead Binding System (Molecular Devices). After incubation at room temperature for 2 hours, the reaction product was analyzed on LJL Acquest.
as §1

Sequence of human recombinant PDGFR beta (P09619 33-1106): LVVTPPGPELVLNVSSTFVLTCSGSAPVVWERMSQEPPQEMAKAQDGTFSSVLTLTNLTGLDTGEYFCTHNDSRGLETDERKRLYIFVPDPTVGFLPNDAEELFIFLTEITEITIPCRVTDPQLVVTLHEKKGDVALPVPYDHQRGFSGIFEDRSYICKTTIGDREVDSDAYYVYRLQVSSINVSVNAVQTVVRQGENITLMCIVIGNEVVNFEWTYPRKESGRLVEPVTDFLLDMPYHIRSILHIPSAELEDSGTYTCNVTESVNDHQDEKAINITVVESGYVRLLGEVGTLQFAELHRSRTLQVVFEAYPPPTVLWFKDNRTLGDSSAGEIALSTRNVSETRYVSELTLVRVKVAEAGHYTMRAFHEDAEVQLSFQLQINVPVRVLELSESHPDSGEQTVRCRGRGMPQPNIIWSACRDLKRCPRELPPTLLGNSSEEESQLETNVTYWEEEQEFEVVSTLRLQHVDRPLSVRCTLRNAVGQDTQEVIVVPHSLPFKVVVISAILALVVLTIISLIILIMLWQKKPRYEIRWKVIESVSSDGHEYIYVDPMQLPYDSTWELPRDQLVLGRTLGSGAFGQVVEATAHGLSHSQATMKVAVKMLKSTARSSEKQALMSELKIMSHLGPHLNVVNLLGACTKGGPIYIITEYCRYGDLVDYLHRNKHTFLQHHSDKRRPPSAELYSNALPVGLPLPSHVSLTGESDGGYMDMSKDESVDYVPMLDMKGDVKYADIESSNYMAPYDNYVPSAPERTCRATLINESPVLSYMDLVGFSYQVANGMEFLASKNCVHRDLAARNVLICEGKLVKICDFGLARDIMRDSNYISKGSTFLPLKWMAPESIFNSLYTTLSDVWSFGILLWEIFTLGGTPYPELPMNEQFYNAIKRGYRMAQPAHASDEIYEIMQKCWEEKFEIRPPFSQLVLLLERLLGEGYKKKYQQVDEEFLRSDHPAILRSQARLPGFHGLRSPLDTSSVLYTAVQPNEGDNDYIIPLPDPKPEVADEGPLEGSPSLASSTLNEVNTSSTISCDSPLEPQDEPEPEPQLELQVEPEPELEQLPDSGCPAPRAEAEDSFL
T1 sequence (P12931 whole entry): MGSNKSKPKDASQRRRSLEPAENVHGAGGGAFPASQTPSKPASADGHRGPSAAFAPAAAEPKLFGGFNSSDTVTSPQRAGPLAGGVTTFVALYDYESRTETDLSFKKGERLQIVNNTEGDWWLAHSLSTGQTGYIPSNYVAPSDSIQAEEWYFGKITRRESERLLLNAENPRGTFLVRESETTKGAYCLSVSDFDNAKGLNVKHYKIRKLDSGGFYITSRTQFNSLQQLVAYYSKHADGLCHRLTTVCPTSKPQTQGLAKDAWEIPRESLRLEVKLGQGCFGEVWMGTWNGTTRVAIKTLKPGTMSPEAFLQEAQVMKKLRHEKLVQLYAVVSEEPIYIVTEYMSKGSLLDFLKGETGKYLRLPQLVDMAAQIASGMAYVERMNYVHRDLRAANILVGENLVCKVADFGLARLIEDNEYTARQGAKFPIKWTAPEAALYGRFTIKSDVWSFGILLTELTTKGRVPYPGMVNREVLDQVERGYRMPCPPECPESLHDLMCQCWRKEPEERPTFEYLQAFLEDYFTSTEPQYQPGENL
T2 sequence (P00520 27-1123 limits assumed): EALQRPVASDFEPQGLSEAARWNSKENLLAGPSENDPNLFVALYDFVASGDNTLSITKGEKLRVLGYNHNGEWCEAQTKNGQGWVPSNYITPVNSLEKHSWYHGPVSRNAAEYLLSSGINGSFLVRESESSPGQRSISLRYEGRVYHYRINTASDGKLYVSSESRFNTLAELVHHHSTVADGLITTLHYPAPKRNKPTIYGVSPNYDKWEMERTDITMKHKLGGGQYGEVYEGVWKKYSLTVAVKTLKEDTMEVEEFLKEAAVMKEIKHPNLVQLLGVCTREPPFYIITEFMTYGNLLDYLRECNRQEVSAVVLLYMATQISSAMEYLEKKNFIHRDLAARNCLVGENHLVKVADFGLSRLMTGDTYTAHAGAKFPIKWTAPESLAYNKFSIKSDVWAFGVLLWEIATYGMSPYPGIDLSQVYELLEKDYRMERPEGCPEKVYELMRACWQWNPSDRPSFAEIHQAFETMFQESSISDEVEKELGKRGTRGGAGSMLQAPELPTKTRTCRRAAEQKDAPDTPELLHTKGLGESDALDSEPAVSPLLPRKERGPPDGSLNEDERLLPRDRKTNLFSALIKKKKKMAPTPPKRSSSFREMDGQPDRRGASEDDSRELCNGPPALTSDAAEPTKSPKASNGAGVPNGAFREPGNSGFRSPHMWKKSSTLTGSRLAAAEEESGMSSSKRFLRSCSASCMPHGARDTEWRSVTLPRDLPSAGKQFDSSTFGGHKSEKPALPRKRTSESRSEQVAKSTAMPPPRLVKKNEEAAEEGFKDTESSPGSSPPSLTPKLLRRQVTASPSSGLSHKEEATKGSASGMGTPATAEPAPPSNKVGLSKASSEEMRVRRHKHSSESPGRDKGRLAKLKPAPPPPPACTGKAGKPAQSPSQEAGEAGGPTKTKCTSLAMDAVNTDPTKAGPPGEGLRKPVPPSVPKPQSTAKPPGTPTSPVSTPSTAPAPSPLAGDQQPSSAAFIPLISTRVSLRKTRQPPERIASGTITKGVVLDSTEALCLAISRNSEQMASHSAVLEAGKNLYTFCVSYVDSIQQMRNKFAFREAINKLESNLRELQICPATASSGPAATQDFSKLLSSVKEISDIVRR

SMILES	IC50 (Src (p60c-src)) [nM]	IC50 [1] [nM]	IC50 [2] [nM]
Cc1ccccc1-c1cc2cnc(NC(CO)CO)nc2c(=O)n1C [Example 4, 2-(2-Hydroxy-1-hydroxymethyl-ethylamino)-7-methyl-6-o-tolyl-7H-pyrido[3,4-d]pyrimidin-8-one]	500 to 1500	500 to 15000	
Cc1ccccc1-c1cc2cnc(NC3CCOCC3)nc2c(=O)n1C [Example 12, 7-Methyl-2-(tetrahydro-pyran-4-ylamino)-6-o-tolyl-7H-pyrido[3,4-d]pyrimidin-8-one]	687	500 to 15000	
COc1cccc(Cn2c(-c3ccccc3C)cc3cnc(Nc4cccc([S+](C)[O-])c4)nc3c2=O)c1 (stereo not shown) [Example 23, 2-(3-Methanesulfinyl-phenylamino)-7-(3-methoxy-benzyl)-6-o-tolyl-7H-pyrido[3,4-d]pyrimidin-8-one]	1 to 500	1 to 500	
Cc1cc(Cn2c(-c3ccccc3Cl)cc3cnc(Nc4ccc(N5CCN(C)CC5)cc4)nc3c2=O)nn1C [Example 30, 6-(2-Chloro-phenyl)-7-(1,5-dimethyl-1H-pyrazol-3-ylmethyl)-2-[4-(4-methyl-piperazin-1-yl)-phenylamino]-7H-pyrido[3,4-d]pyrimidin-8-one]	1 to 500	1 to 500	500 to 15000
CCN(CC)CCOc1ccc(Nc2ncc3cc(-c4ccccc4Cl)n(Cc4cc(C)n(C)n4)c(=O)c3n2)cc1 [Example 31, 6-(2-Chloro-phenyl)-2-[4-(2-diethylamino-ethoxy)-phenylamino]-7-(1,5-dimethyl-1H-pyrazol-3-ylmethyl)-7H-pyrido[3,4-d]pyrimidin-8-one]	1 to 500	1 to 500	
Cc1cc(Cn2c(-c3ccccc3Cl)cc3cnc(Nc4cccc([S+](C)[O-])c4)nc3c2=O)nn1C (stereo not shown) [Example 33, 6-(2-Chloro-phenyl)-7-(1,5-dimethyl-1H-pyrazol-3-ylmethyl)-2-(3-methanesulfinyl-phenylamino)-7H-pyrido[3,4-d]pyrimidin-8-one]	1 to 500	1 to 500	
COc1cccc(Cn2c(-c3ccccc3Cl)cc3cnc(Nc4ccc(S(=O)(=O)NCCO)cc4)nc3c2=O)c1 [Example 37, 4-[6-(2-Chloro-phenyl)-7-(3-methoxy-benzyl)-8-oxo-7,8-dihydro-pyrido[3,4-d]pyrimidin-2-ylamino]-N-(2-hydroxy-ethyl)-benzenesulfonamide]	1 to 500	1 to 500	

The next lines start with the values.

IC50 (Src (p60c-src)) [nM]	IC50 [1] [nM]	IC50 [2] [nM]	SMILES
2.9	1 to 500	1 to 500	Cc1ccccc1-c1cc2cnc(Nc3ccc(N4CCOCC4)cc3)nc2c(=O)n1C [Example 1, 7-Methyl-2-(4-morpholin-4-yl-phenylamino)-6-o-tolyl-7H-pyrido[3,4-d]pyrimidin-8-one]
1 to 500	1 to 500	94	Cc1ccccc1-c1cc2cnc(Nc3ccc(N4CCN(C)CC4)cc3)nc2c(=O)n1C [Example 3, 7-Methyl-2-[4-(4-methyl-piperazin-1-yl)-phenylamino]-6-o-tolyl-7H-pyrido[3,4-d]pyrimidin-8-one]
1 to 500	77		Cc1ccccc1-c1cc2cnc(Nc3ccc(S(=O)(=O)NCCO)cc3)nc2c(=O)n1CC(N)=O [Example 5, 2-{2-[4-(2-Hydroxy-ethylsulfamoyl)-phenylamino]-8-oxo-6-o-tolyl-8H-pyrido[3,4-d]pyrimidin-7-yl}-acetamide]
1 to 500	1 to 500	1 to 500	Cc1ccccc1-c1cc2cnc(Nc3ccc(S(=O)(=O)NCCO)cc3)nc2c(=O)n1C [Example 6, N-(2-Hydroxy-ethyl)-4-(7-methyl-8-oxo-6-o-tolyl-7,8-dihydro-pyrido[3,4-d]pyrimidin-2-ylamino)-benzenesulfonamide]
1 to 500	1 to 500	1 to 500	CCN(CC)CCOc1ccc(Nc2ncc3cc(-c4ccccc4C)n(C)c(=O)c3n2)cc1 [Example 7, 2-[4-(2-Diethylamino-ethoxy)-phenylamino]-7-methyl-6-o-tolyl-7H-pyrido[3,4-d]pyrimidin-8-one]
1 to 500	214		Cc1ccccc1-c1cc2cnc(Nc3cccc([S+](C)[O-])c3)nc2c(=O)n1CC(N)=O (stereo not shown) [Example 8, 2-[2-(3-Methanesulfinyl-phenylamino)-8-oxo-6-o-tolyl-8H-pyrido[3,4-d]pyrimidin-7-yl]-acetamide]
1 to 500	1 to 500	417	Cc1ccccc1-c1cc2cnc(Nc3cccc([S+](C)[O-])c3)nc2c(=O)n1C (stereo not shown) [Example 10, 2-(3-Methanesulfinyl-phenylamino)-7-methyl-6-o-tolyl-7H-pyrido[3,4-d]pyrimidin-8-one]
1 to 500	1 to 500	500 to 15000	COc1cccc(Cn2c(-c3ccccc3C)cc3cnc(Nc4ccc(N5CCN(C)CC5)cc4)nc3c2=O)c1 [Example 20, 7-(3-Methoxy-benzyl)-2-[4-(4-methyl-piperazin-1-yl)-phenylamino]-6-o-tolyl-7H-pyrido[3,4-d]pyrimidin-8-one]
1 to 500	1 to 500		COc1cccc(Cn2c(-c3ccccc3C)cc3cnc(Nc4ccc(S(=O)(=O)NCCO)cc4)nc3c2=O)c1 [Example 21, N-(2-Hydroxy-ethyl)-4-[7-(3-methoxy-benzyl)-8-oxo-6-o-tolyl-7,8-dihydro-pyrido[3,4-d]pyrimidin-2-ylamino]-benzenesulfonamide]
	1 to 500		CCN(CC)CCOc1ccc(Nc2ncc3cc(-c4ccccc4C)n(Cc4cccc(OC)c4)c(=O)c3n2)cc1 [Example 22, 2-[4-(2-Diethylamino-ethoxy)-phenylamino]-7-(3-methoxy-benzyl)-6-o-tolyl-7H-pyrido[3,4-d]pyrimidin-8-one]
